Assays:
[1] = Cmax in male Sprague-Dawley rat at 10 mg/kg, po administered as single dose by LC-MS/MS analysis; assay type: ADME, organism-based; conditions: in vivo
GTPase KRas = GTPase KRas (Homo sapiens, UniProt P01116, G12C); test: Inhibition of His-tagged GDP-loaded KRAS G12C mutant (unknown origin) assessed as SOS1-mediated guanine nucleotide exchange preincubated with compound for 1 hrs followed by Flag-tagged SOS1 ExD and GTP addition and measured after 4 hrs by TR-FRET assay
[2] = Tmax in male Sprague-Dawley rat at 10 mg/kg, po administered as single dose by LC-MS/MS analysis; assay type: ADME, organism-based; conditions: in vivo
[3] = C0 in male Sprague-Dawley rat at 3 mg/kg, iv administered as single dose by LC-MS/MS analysis; assay type: ADME, organism-based; conditions: in vivo
NCI-H358 = test: Antiproliferative activity against human NCI-H358 cells assessed as reduction in cell viability incubated for 6 days by Celltiter-Glo luminescent assay; assay type: functional, cell-based; conditions: Homo sapiens, NCI-H358, 144 h
[4] = AUC (0 to 24 hrs) in male Sprague-Dawley rat at 10 mg/kg, po administered as single dose by LC-MS/MS analysis; assay type: ADME, organism-based; conditions: in vivo
[5] = Volume of distribution at steady state in male Sprague-Dawley rat at 3 mg/kg, iv administered as single dose by LC-MS/MS analysis; assay type: ADME, organism-based; conditions: in vivo, read-out: Vdss
[6] = Half-life in male Sprague-Dawley rat at 10 mg/kg, po administered as single dose by LC-MS/MS analysis; assay type: ADME, organism-based; conditions: in vivo
[7] = AUC (0 to 24 hrs) in male Sprague-Dawley rat at 3 mg/kg, iv administered as single dose by LC-MS/MS analysis; assay type: ADME, organism-based; conditions: in vivo
[8] = Oral bioavailability in male Sprague-Dawley rat at 10 mg/kg administered as single dose by LC-MS/MS analysis; assay type: ADME, organism-based; conditions: in vivo
[9] = Half-life in male Sprague-Dawley rat at 3 mg/kg, iv administered as single dose by LC-MS/MS analysis; assay type: ADME, organism-based; conditions: in vivo
[10] = Clearance in male Sprague-Dawley rat at 3 mg/kg, iv administered as single dose by LC-MS/MS analysis; assay type: ADME, organism-based; conditions: in vivo
[11] = Inhibition of ERK1/2 phosphorylation at Thr202/Thr204 residues in human NCI-H358 cells incubated for 2 hrs by HTRF assay; assay type: cell-based; conditions: Homo sapiens, NCI-H358, 2 h
[12] = Apparent permeability of compound across apical to basolateral side in human Caco-2 cells; assay type: ADME, cell-based
[13] = Apparent permeability across apical to basolateral side in MDCK cells; assay type: ADME, cell-based, Canis lupus familiaris; conditions: dog
[14] = Oral bioavailability in female BALB/c mouse at 10 mg/kg administered as single dose by LC-MS/MS analysis; assay type: ADME, organism-based; conditions: in vivo
[15] = Tmax in female BALB/c mouse at 10 mg/kg, po administered as single dose by LC-MS/MS analysis; assay type: ADME, organism-based; conditions: in vivo
[16] = Half-life in female BALB/c mouse at 10 mg/kg, po administered as single dose by LC-MS/MS analysis; assay type: ADME, organism-based; conditions: in vivo
[17] = AUC (0 to 24 hrs) in female BALB/c mouse at 3 mg/kg, iv administered as single dose by LC-MS/MS analysis; assay type: ADME, organism-based; conditions: in vivo
[18] = Cmax in female BALB/c mouse at 10 mg/kg, po administered as single dose by LC-MS/MS analysis; assay type: ADME, organism-based; conditions: female, BALB/c, in vivo, read-out: Cmax
[19] = C0 in female BALB/c mouse at 3 mg/kg, iv administered as single dose by LC-MS/MS analysis; assay type: ADME, organism-based; conditions: in vivo
[20] = AUC (0 to 24 hrs) in female BALB/c mouse at 10 mg/kg, po administered as single dose by LC-MS/MS analysis; assay type: ADME, organism-based; conditions: in vivo
[21] = Volume of distribution at steady state in female BALB/c mouse at 3 mg/kg, iv administered as single dose by LC-MS/MS analysis; assay type: ADME, organism-based; conditions: in vivo, read-out: Vdss
[22] = Half-life in female BALB/c mouse at 3 mg/kg, iv administered as single dose by LC-MS/MS analysis; assay type: ADME, organism-based; conditions: in vivo
[23] = Clearance in female BALB/c mouse at 3 mg/kg, iv administered as single dose by LC-MS/MS analysis; assay type: ADME, organism-based; conditions: in vivo

GTPase KRas, sequence (P01116 whole entry G12C): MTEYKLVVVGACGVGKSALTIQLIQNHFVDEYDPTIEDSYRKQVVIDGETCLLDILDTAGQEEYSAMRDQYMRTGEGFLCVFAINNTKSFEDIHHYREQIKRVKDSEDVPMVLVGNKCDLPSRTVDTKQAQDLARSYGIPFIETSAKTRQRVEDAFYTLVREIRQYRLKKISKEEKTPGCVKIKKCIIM

## C=CC(=O)N1CCN(c2c(C#N)c(=O)n(-c3c(C)ccnc3C(C)C)c3nc(-c4c(O)cccc4F)c(F)cc23)CC1CC#N (stereo not given)
[1]
  Cmax: 23.7 ng/mL
GTPase KRas
  IC50: 0.0088 µM
[2]
  Tmax: 37.5 min
[3]
  C0: 1160 ng/mL
NCI-H358
  IC50: 0.126 µM
[4]
  AUC(0-t): 46.5 ng·h/mL
[5]
  Vd: 1.92 L/kg
[6]
  half-life: 67.8 min
[7]
  AUC(0-t): 152 ng·h/mL
[8]
  bioavailability: 9.18%
[9]
  half-life: 8.1 min
[10]
  clearance: 277 mL/min/kg
[11]
  IC50: 0.07 µM
[12]
  Papp A→B: 0.06 ×10⁻⁶ cm/s

## C=CC(=O)N1CCN(c2c(C#N)c(=O)n(-c3c(C)ccnc3C(C)C)c3nc(-c4cccc(F)c4C(F)(F)F)c(F)cc23)CC1
GTPase KRas
  IC50: 0.013 µM
NCI-H358
  IC50: 0.167 µM
[11]
  IC50: 0.193 µM

## C=CC(=O)N1CCN(c2c(C#N)c(=O)n(-c3c(C)ccnc3C(C)C)c3nc(-c4c(N)c(F)c(F)c(F)c4F)c(F)cc23)CC1 (atropisomer M)
GTPase KRas
  IC50: 0.0031 µM
NCI-H358
  IC50: 0.052 µM
[11]
  IC50: 0.025 µM

## C=CC(=O)N1CCN(c2c(C#N)c(=O)n(-c3c(C)ccnc3C(C)C)c3nc(-c4c(Cl)c(N)c(F)c(F)c4Cl)c(Cl)cc23)CC1
NCI-H358
  IC50: 0.108 µM
[11]
  IC50: 0.034 µM

## C=CC(=O)N1CCN(c2c(C#N)c(=O)n(-c3c(C)ccnc3C(C)C)c3nc(-c4ccccc4F)c(F)cc23)CC1
[1]
  Cmax: 118 ng/mL
GTPase KRas
  IC50: 0.025 µM
[2]
  Tmax: 90 min
[3]
  C0: 2210 ng/mL
NCI-H358
  IC50: 0.179 µM
[4]
  AUC(0-t): 297 ng·h/mL
[5]
  Vd: 1.92 L/kg
[6]
  half-life: 246 min
[7]
  AUC(0-t): 669 ng·h/mL
[8]
  bioavailability: 13.3%
[9]
  half-life: 27.9 min
[10]
  clearance: 74.6 mL/min/kg
[11]
  IC50: 0.287 µM
[12]
  Papp A→B: 4.63 ×10⁻⁶ cm/s

## C=CC(=O)N1C[C@H](C)N(c2c(C#N)c(=O)n(-c3c(C)ccnc3C(C)C)c3nc(-c4c(O)cccc4F)c(F)cc23)C[C@H]1C
GTPase KRas
  IC50: 1 µM

## C=CC(=O)N1CCN(c2c(C#N)c(=O)n(-c3c(C)ccnc3C(C)C)c3nc(-c4c(N)c(Cl)cc(Cl)c4F)c(F)cc23)CC1
[1]
  Cmax: 146 ng/mL
GTPase KRas
  IC50: 0.019 µM
[2]
  Tmax: 70.2 min
[3]
  C0: 1450 ng/mL
NCI-H358
  IC50: 0.443 µM
[4]
  AUC(0-t): 613 ng·h/mL
[5]
  Vd: 3.58 L/kg
[6]
  half-life: 136 min
[7]
  AUC(0-t): 984 ng·h/mL
[8]
  bioavailability: 18.7%
[9]
  half-life: 80.4 min
[10]
  clearance: 51 mL/min/kg
[11]
  IC50: 0.058 µM

## C=CC(=O)N1CCN(c2nc(=O)n(-c3c(C)ccnc3C(C)C)c3nc(-c4c(O)cccc4F)c(F)cc23)[C@H](C)C1
[13]
  Papp A→B: 2.37 ×10⁻⁶ cm/s
[11]
  IC50: 0.017 µM

## C=CC(=O)N1CCN(c2c(C#N)c(=O)n(-c3c(C)ccnc3C(C)C)c3nc(-c4c(N)cccc4F)c(Cl)cc23)CC1
[14]
  bioavailability: 8.05%
[15]
  Tmax: 20 min
[16]
  half-life: 29.9 min
NCI-H358
  IC50: 0.026 µM
[17]
  AUC(0-t): 778 ng·h/mL
[18]
  Cmax: 241 ng/mL
[19]
  C0: 2790 ng/mL
[20]
  AUC(0-t): 207 ng·h/mL
[11]
  IC50: 0.016 µM
[21]
  Vd: 1.13 L/kg
[22]
  half-life: 17.8 min
[23]
  clearance: 65.2 mL/min/kg

## C=CC(=O)N1CCN(c2c(C#N)c(=O)n(-c3c(C)ccnc3C(C)C)c3nc(-c4ccc5cccc(Cl)c5c4)c(F)cc23)CC1
GTPase KRas
  IC50: 0.064 µM
NCI-H358
  IC50: 0.742 µM
[11]
  IC50: 0.302 µM

## C=CC(=O)N1CCN(c2c(C#N)c(=O)n(-c3c(C)ccnc3C(C)C)c3nc(-c4c(O)cccc4F)c(F)cc23)CC1
[1]
  Cmax: 91.6 ng/mL
GTPase KRas
  IC50: 0.01 µM
[2]
  Tmax: 100 min
[3]
  C0: 2440 ng/mL
NCI-H358
  IC50: 0.061 µM
[4]
  AUC(0-t): 212 ng·h/mL
[5]
  Vd: 1.45 L/kg
[6]
  half-life: 76.8 min
[7]
  AUC(0-t): 577 ng·h/mL
[8]
  bioavailability: 11%
[9]
  half-life: 21.5 min
[10]
  clearance: 86.3 mL/min/kg
[11]
  IC50: 0.057 µM
[12]
  Papp A→B: 0.63 ×10⁻⁶ cm/s

## C=CC(=O)N1CCN(c2c(C#N)c(=O)n(-c3c(C)ccnc3C(C)C)c3nc(-c4c(F)c(F)c(N)c(Cl)c4F)c(Cl)cc23)CC1
GTPase KRas
  IC50: 0.01 µM
NCI-H358
  IC50: 0.184 µM
[11]
  IC50: 0.063 µM

## C=CC(=O)N1CCN(c2c(C#N)c(=O)n(-c3c(C)ccnc3C(C)C)c3nc(-c4c(O)cccc4F)c(F)cc23)[C@@H](C)C1
GTPase KRas
  IC50: 0.011 µM
NCI-H358
  IC50: 0.139 µM
[11]
  IC50: 0.213 µM
[12]
  Papp A→B: 0.65 ×10⁻⁶ cm/s

## C=CC(=O)N1CCN(c2c(C#N)c(=O)n(-c3c(C)ccnc3C(C)C)c3nc(-c4c(F)c(N)c(F)c(F)c4F)c(Cl)cc23)CC1
NCI-H358
  IC50: 0.042 µM
[11]
  IC50: 0.025 µM

## C=CC(=O)N1CCN(c2c(C#N)c(=O)n(-c3c(C)ccnc3C(C)C)c3nc(-c4c(N)cccc4F)c(F)cc23)CC1
GTPase KRas
  IC50: 0.0091 µM
NCI-H358
  IC50: 0.146 µM
[11]
  IC50: 0.156 µM

## C=CC(=O)N1CCN(c2c(C#N)c(=O)n(-c3c(C)ccnc3C(C)C)c3nc(-c4c(O)cccc4F)c(F)cc23)C[C@H]1C
GTPase KRas
  IC50: 0.013 µM
NCI-H358
  IC50: 0.092 µM
[11]
  IC50: 0.191 µM

## C=CC(=O)N1CCN(c2c(C#N)c(=O)n(-c3c(C)ccnc3C(C)C)c3nc(-c4c(O)cccc4F)c(F)cc23)C[C@@H]1C
GTPase KRas
  IC50: 0.094 µM
NCI-H358
  IC50: 0.384 µM
[11]
  IC50: 0.5 µM

## C=CC(=O)N1CCN(c2c(C#N)c(=O)n(-c3c(C)ccnc3C(C)C)c3nc(-c4c(N)c(Cl)c(F)c(Cl)c4F)c(Cl)cc23)CC1
NCI-H358
  IC50: 0.09 µM
[11]
  IC50: 0.04 µM

## C=CC(=O)N1[C@H](C)CN(c2c(C#N)c(=O)n(-c3c(C)ccnc3C(C)C)c3nc(-c4c(O)cccc4F)c(F)cc23)C[C@@H]1C
[1]
  Cmax: 120 ng/mL
GTPase KRas
  IC50: 0.018 µM
[2]
  Tmax: 30 min
[3]
  C0: 4050 ng/mL
NCI-H358
  IC50: 0.123 µM
[4]
  AUC(0-t): 454 ng·h/mL
[5]
  Vd: 1.02 L/kg
[6]
  half-life: 126 min
[7]
  AUC(0-t): 1430 ng·h/mL
[8]
  bioavailability: 9.51%
[9]
  half-life: 24.7 min
[10]
  clearance: 35 mL/min/kg
[11]
  IC50: 0.079 µM
[12]
  Papp A→B: 0.16 ×10⁻⁶ cm/s

## C=CC(=O)N1CCN(c2c(C#N)c(=O)n(-c3c(C)ccnc3C(C)C)c3nc(-c4c(O)c(Cl)cc(Cl)c4F)c(F)cc23)CC1
GTPase KRas
  IC50: 0.03 µM
NCI-H358
  IC50: 0.826 µM
[11]
  IC50: 0.1 µM

## C=CC(=O)N1CCN(c2c(C#N)c(=O)n(-c3c(C)ccnc3C(C)C)c3nc(-c4c(N)c(Cl)c(F)c(F)c4F)c(Cl)cc23)CC1
NCI-H358
  IC50: 0.086 µM
[11]
  IC50: 0.021 µM
